From US20230339981A1, “KRAS G12D MODULATING COMPOUNDS” (priority 2022, published 2023) come the findings set out here.

Experiment [1] addresses GDP-loaded KRAS G12D (Homo sapiens (Human), UniProt P01116, G12D). As to the kind of experiment: KRAS G12D (GDP) biochemical assay (TR-FRET probe displacement). Format: binding. The settings on record: 2 hours. An outline of the steps:
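Compound pre-incubated 30 min with GDP-loaded KRAS G12D in 50 mM Hepes pH 7.4, 150 mM NaCl, 5 mM MgCl2, 0.005% Tween-20, then Eu-streptavidin and TR-FRET probe added. After 2 h at room temperature, TR-FRET ratio read; IC50 is 50% ratio decrease, sigmoidal fit.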
(In general: In TR-FRET formats the signal depends on donor and acceptor labels being close together.)

Experiment [2] deals with GP2D (KRAS G12D) cells. As to the kind of experiment: 2D cell viability assay (CellTiter-Glo). The settings on record: GP2d, 96 h, 4 days. It counts as cell-based. Put shortly:
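GP2D (KRAS G12D) cells, 1000/well in RPMI + 10% FBS, were plated onto compound (1:3 DMSO series) and grown 4 days at 37 °C, 5% CO2 in 2D. CellTiter-Glo luminescence was read; EC50 is the concentration giving 50% signal decrease, from sigmoidal fit.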
(In ATP-based viability assays light output follows the ATP content of the culture.)

What is called IC50 is the concentration needed to halve the response being measured. A low value points to higher potency. Usually EC50 stands for the midpoint of the concentration-response curve.

GDP-loaded KRAS G12D, sequence (P01116-2 other isoform, or with tags, fused parts or gaps G12D): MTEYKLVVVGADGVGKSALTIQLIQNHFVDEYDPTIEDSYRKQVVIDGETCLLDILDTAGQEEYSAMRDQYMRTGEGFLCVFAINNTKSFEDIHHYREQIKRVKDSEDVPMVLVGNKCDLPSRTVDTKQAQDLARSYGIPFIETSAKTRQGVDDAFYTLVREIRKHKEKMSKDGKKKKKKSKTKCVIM

Molecule `C#Cc1c(F)ccc2cccc(-c3nc4c5c(nc(OC[C@@]67CCCN6C[C@@]6(CC6(F)F)C7)nc5c3F)N3C[C@H]5CC[C@H](N5)[C@@H]3[C@@H](C)C4)c12` [Example 85, (5S,5aS,6S,9R)-12-(((1S,7a'S)-2,2-difluorodihydro-1′H,3′H-spiro[cyclopropane-1,2′-pyrrolizin]-7a′(5′H)-yl)methoxy)-2-(8-ethynyl-7-fluoronaphthalen-1-yl)-1-fluoro-5-methyl-4,5,5a,6,7,8,9,10-octahydro-3,10a,11,13,14-pentaaza-6,9-methanonaphtho[1,8-ab]heptalene] had an IC50 in experiment [1] of 0.0068 µM. The molecule further came in with an EC50 in experiment [2] of 0.058 µM.
For `C#Cc1c(F)ccc2cccc(-c3nc4c5c(nc(OCC6(CN7CCC(OC(F)(F)F)CC7)CC6)nc5c3F)N3C[C@H]5CC[C@H](N5)[C@@H]3[C@@H](C)C4)c12` [Example 88, (5S,5aS,6S,9R)-2-(8-ethynyl-7-fluoronaphthalen-1-yl)-1-fluoro-5-methyl-12-((1-((4-(trifluoromethoxy)piperidin-1-yl)methyl)cyclopropyl)methoxy)-4,5,5a,6,7,8,9,10-octahydro-3,10a,11,13,14-pentaaza-6,9-methanonaphtho[1,8-ab]heptalene] the same measures were 0.0365 µM and 0.255 µM.
Take `C#Cc1c(F)ccc2cccc(-c3nc4c5c(nc(OCC6(CN7CC[C@H](OC(F)(F)F)C7)CC6)nc5c3F)N3C[C@H]5CC[C@H](N5)[C@@H]3[C@@H](C)C4)c12` [Example 89, (5S,5aS,6S,9R)-2-(8-ethynyl-7-fluoronaphthalen-1-yl)-1-fluoro-5-methyl-12-((1-(((S)-3-(trifluoromethoxy)pyrrolidin-1-yl)methyl)cyclopropyl)methoxy)-4,5,5a,6,7,8,9,10-octahydro-3,10a,11,13,14-pentaaza-6,9-methanonaphtho[1,8-ab]heptalene]: in experiment [1], the IC50 turned out to be 0.0509 µM. The molecule also came in with an EC50 in experiment [2] of 0.379 µM.
The corresponding values for `C#Cc1c(F)ccc2cc(O)cc(-c3nc4c5c(nc(OC[C@@]67CCCN6C[C@H](F)C7)nc5c3F)N3C[C@H]5CC[C@H](N5)[C@@H]3[C@H](CC)C4)c12` [Example 90, 4-((5R,5aS,6S,9R)-5-ethyl-1-fluoro-12-(((2R,7aS)-2-fluorotetrahydro-1H-pyrrolizin-7a(5H)-yl)methoxy)-4,5,5a,6,7,8,9,10-octahydro-3,10a,11,13,14-pentaaza-6,9-methanonaphtho[1,8-ab]heptalen-2-yl)-5-ethynyl-6-fluoronaphthalen-2-ol] are 0.1 µM and 1 µM.
`C#Cc1c(F)ccc2cccc(-c3nc4c5c(nc(OC[C@@]67CCCN6C[C@H](F)C7)nc5c3F)N3C[C@H]5CC[C@H](N5)[C@@H]3[C@@H](CC)C4)c12` [Example 91, (5S,5aS,6S,9R)-5-ethyl-2-(8-ethynyl-7-fluoronaphthalen-1-yl)-1-fluoro-12-(((2R,7aS)-2-fluorotetrahydro-1H-pyrrolizin-7a(5H)-yl)methoxy)-4,5,5a,6,7,8,9,10-octahydro-3,10a,11,13,14-pentaaza-6,9-methanonaphtho[1,8-ab]heptalene] gave an IC50 in experiment [1] of 0.1 µM. The molecule further registered an EC50 in experiment [2] of 1 µM.
Consider `C#Cc1c(F)ccc2cccc(-c3nc4c5c(nc(OC[C@@]67CCCN6C[C@H](F)C7)nc5c3F)N3C[C@H]5CC[C@H](N5)[C@H]3CC4(F)F)c12` [Example 98, (5aR,6S,9R)-2-(8-ethynyl-7-fluoronaphthalen-1-yl)-1,4,4-trifluoro-12-(((2R,7aS)-2-fluorotetrahydro-1H-pyrrolizin-7a(5H)-yl)methoxy)-4,5,5a,6,7,8,9,10-octahydro-3,10a,11,13,14-pentaaza-6,9-methanonaphtho[1,8-ab]heptalene], for which, in experiment [1], the IC50 amounted to 0.0126 µM. In addition, it took 0.124 µM to reach a half-maximal effect in experiment [2] (EC50).
For `C#Cc1c(F)ccc2cccc(-c3nc4c5c(nc(OCC6(CN7CCC[Si](C)(C)CC7)CC6)nc5c3F)N3C[C@H]5CC[C@H](N5)[C@@H]3[C@@H](C)C4)c12` [Example 100, (5S,5aS,6S,9R)-12-((1-((4,4-dimethyl-1,4-azasilepan-1-yl)methyl)cyclopropyl)methoxy)-2-(8-ethynyl-7-fluoronanhthalen-1-yl)-1-fluoro-5-methyl-4,5,5a,6,7,8,9,10-octahydro-3,10a,11,13,14-pentaaza-6,9-methanonaphtho[1,8-ab]heptalene] the same measures were 0.0318 µM and 0.373 µM.
For `C#Cc1c(F)ccc2cccc(-c3nc4c5c(nc(OCC6(CN7CCN(CC(F)(F)F)CC7)CC6)nc5c3F)N3C[C@H]5CC[C@H](N5)[C@@H]3[C@@H](C)C4)c12` [Example 101, (5S,5aS,6S,9R)-2-(8-ethynyl-7-fluoronaphthalen-1-yl)-1-fluoro-5-methyl-12-((1-((4-(2,2,2-trifluoroethyl)piperazin-1-yl)methyl)cyclopropyl)methoxy)-4,5,5a,6,7,8,9,10-octahydro-3,10a,11,13,14-pentaaza-6,9-methanonaphtho[1,8-ab]heptalene] the same measures were 0.0127 µM and 0.175 µM.
For `Oc1cc(-c2nc3c4c(nc(OCC5(CN6CC[C@H](OC(F)(F)F)C6)CC5)nc4c2F)N2C[C@H]4CC[C@H](N4)[C@H]2CC3)c2c(OC(F)(F)F)c(F)ccc2c1` [Example 103, 6-fluoro-4-((5aR,6S,9R)-1-fluoro-12-((1-(((S)-3-(trifluoromethoxy)pyrrolidin-1-yl)methyl)cyclopropyl)methoxy)-4,5,5a,6,7,8,9,10-octahydro-3,10a,11,13,14-pentaaza-6,9-methanonaphtho[1,8-ab]heptalen-2-yl)-5-(trifluoromethoxy)naphthalen-2-ol] the same measures were 0.0053 µM and 0.0626 µM.
Take `C#Cc1c(F)ccc2cccc(-c3nc4c5c(nc(OC[C@@]67CCCN6[C@H](COc6cccc(S(F)(F)(F)(F)F)c6)CC7)nc5c3F)N3C[C@H]5CC[C@H](N5)[C@@H]3[C@@H](C)C4)c12` [Example 105, (5S,5aS,6S,9R)-2-(8-ethynyl-7-fluoronaphthalen-1-yl)-1-fluoro-5-methyl-12-(((3S,7aS)-3-((3-(pentafluoro-λ^6-sulfaneyl)phenoxy)methyl)tetrahydro-1H-pyrrolizin-7a(5H)-yl)methoxy)-4,5,5a,6,7,8,9,10-octahydro-3,10a,11,13,14-pentaaza-6,9-methanonaphtho[1,8-ab]heptalene]: the IC50 in experiment [1] stood at 0.0053 µM. Also, in experiment [2], it took 0.435 µM to reach a half-maximal effect (EC50).
The corresponding values for `C#Cc1c(F)ccc2cccc(-c3nc4c5c(nc(OCC6(CN7CCC(OC(F)(F)F)CC7)CC6)nc5c3F)N3C[C@H]5CC[C@H](N5)[C@H]3CC4)c12` [Example 107, (5aR,6S,9R)-2-(8-ethynyl-7-fluoronaphthalen-1-yl)-1-fluoro-12-((1-((4-(trifluoromethoxy)piperidin-1-yl)methyl)cyclopropyl)methoxy)-4,5,5a,6,7,8,9,10-octahydro-3,10a,11,13,14-pentaaza-6,9-methanonaphtho[1,8-ab]heptalene] are 0.0072 µM and 0.46 µM.
The corresponding values for `C#Cc1c(F)ccc2cccc(-c3nc4c5c(nc(OC[C@@]67CCCN6[C@H](COc6cccc(S(F)(F)(F)(F)F)c6)CC7)nc5c3F)N3C[C@H]5CC[C@H](N5)[C@H]3CC4)c12` [Example 108, (5aR,6S,9R)-2-(8-ethynyl-7-fluoronaphthalen-1-yl)-1-fluoro-12-(((3S,7aS)-3-((3-(pentafluoro-λ^6-sulfaneyl)phenoxy)methyl)tetrahydro-1H-pyrrolizin-7a(5H)-yl)methoxy)-4,5,5a,6,7,8,9,10-octahydro-3,10a,11,13,14-pentaaza-6,9-methanonaphtho[1,8-ab]heptalene] are 0.0015 µM and 0.45 µM.
For `C#Cc1c(F)ccc2cccc(-c3nc4c5c(nc(OC[C@]67CCCN6CC(OC(C(F)(F)F)(C(F)(F)F)C(F)(F)F)C7)nc5c3F)N3C[C@H]5CC[C@H](N5)[C@H]3CC4)c12` (stereo partly drawn) [Example 114, (5aR,6S,9R)-2-(8-ethynyl-7-fluoronaphthalen-1-yl)-1-fluoro-12-((trans-2-((1,1,1,3,3,3-hexafluoro-2-(trifluoromethyl)propan-2-yl)oxy)tetrahydro-1H-pyrrolizin-7a(5H)-yl)methoxy)-4,5,5a,6,7,8,9,1O-octahydro-3,10a,11,13,14-pentaaza-6,9-methanonaphtho[1,8-ab]heptalene] the same measures were 0.125 µM and 1 µM.
`C#Cc1c(F)ccc2cccc(-c3nc4c5c(nc(OC[C@@]67CCCN6[C@H](COC(C6CC6)C(F)(F)F)CC7)nc5c3F)N3C[C@H]5CC[C@H](N5)[C@H]3CCC4)c12` (stereo partly drawn) [Example 117, (6aR,7S,10R)-13-(((3S,7aS)-3-((1-cyclopropyl-2,2,2-trifluoroethoxy)methyl)tetrahydro-1H-pyrrolizin-7a(5H)-yl)methoxy)-2-(8-ethynyl-7-fluoronaphthalen-1-yl)-1-fluoro-5,6,6a,7,8,9,10,11-octahydro-4H-3,11a,12,14,15-pentaaza-7,10-methanocyclohepta[4,5]cycloocta[1,2,3-de]naphthalene] showed an IC50 in experiment [1] of 0.0001 µM. Moreover, it took 0.0085 µM to reach a half-maximal effect in experiment [2] (EC50).
The corresponding values for `C#Cc1c(F)ccc2cccc(-c3nc4c5c(nc(OC[C@@]67CCCN6[C@H](COc6cccc(S(F)(F)(F)(F)F)c6)CC7)nc5c3F)N3C[C@H]5CC[C@H](N5)[C@H]3CCC4)c12` [Example 118, (6aR,7S,10R)-2-(8-ethynyl-7-fluoronaphthalen-1-yl)-1-fluoro-13-(((3S,7aS)-3-((3-(pentafluoro-λ^6-sulfaneyl)phenoxy)methyl)tetrahydro-1H-pyrrolizin-7a(5H)-yl)methoxy)-5,6,6a,7,8,9,10,11-octahydro-4H-3,11a,12,14,15-pentaaza-7,10-methanocyclohepta[4,5]cycloocta[1,2,3-de]naphthalene] are 0.0004 µM and 0.0727 µM.
